{"source": "patent US12578273B2", "about": "“Ph-reversible leuco-BODIPY probe for in situ visualization of extracellular vesicles and their secretion from living cells” (The Chinese University of Hong Kong, priority 2021, dated 2026)", "assay": "pH-dependent spectroscopic properties (pH titration, absorption and fluorescence)", "assay_type": "physicochemical", "details": "weakly basic conditions (pH of about 7.4); PBS containing 50% ethanol", "protocol": "In each step of pH titration, small volumes (2-10 μL) of HCl at appropriate concentrations (0.1, 10^−2, or 10^−3 M) were pipetted directly into the measurement cell, followed by filling up with 2 mL of 1 μM dye-containing solution [either in a mixture of PBS/ethanol 1:1 (v/v) or 0.5% (v/v) DMSO]. The pH was monitored at 298 K using a digital pH meter (827 pH lab) equipped with a Biotrode (Metrohm, Herisau, Switzerland). Calibration of the instrument was performed with standard aqueous solutions of pH 4, 7, and 9 from Metrohm. Absorption and fluorescence measurements were carried out on an Agilent Cary 5000 spectrophotometer and a Horiba Jobin Yvon spectrometer (Nanolog FL3-2iHR), respectively.\nWe investigated the spectroscopic properties of the fluorescent probe as a function of pH in phosphate-buffered saline (PBS) containing 50% ethanol by UV-vis spectrophotometry and fluorimetry (FIGS. 21A-21F, 22-23).", "data": [{"smiles": "CCOC(=O)C(=Cc1ccc2n1[B-](F)(F)n1c(C=C(C(=O)OCC)C(=O)OCC)ccc1C2(OC)c1ccncc1)C(=O)OCC", "note": "[leuco-BODIPY]", "values": [{"measurement": "new absorption band", "value": "~360", "unit": "nm"}]}]}
